The values that follow come from ChEMBL document CHEMBL1201862, “PubChem BioAssay data set” (2004).

What all share (assay): NCI-60 cell line screen, 48 h
The test system of assay [1] is BT-549.
For assay [2], the system named is HOP-62.
Assay [3] deals with HOP-92.
The subject of assay [4] is Hs-578T.
For assay [5], the system named is IGROV-1.
Assay [6] relates to M14.
For assay [7], the system named is MDA-MB-231.
Assay [8] concerns NCI-H226.
Assay [9] has as its system NCI-H460.
Assay [10] deals with OVCAR-3.
Assay [11] has as its system OVCAR-5.
Assay [12] concerns SF-295.
The subject of assay [13] is SK-MEL-2.
Assay [14] concerns SR.
Assay [15] relates to UACC-257.
The test system of assay [16] is UACC-62.
In assay [17] the test system is UO-31.
Assay [18] has as its system RPMI-8226.
Assay [19] deals with SF-539.
For assay [20], the system named is HL-60.

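Step 1: Grow cells in 96-well plates. Step 2: Expose to compound for 48 hours at 5 concentrations. Step 3: Interpolate endpoints linearly; if unreached, use highest concentration. GI50 = concentration required for 50% inhibition of growth.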 Calls of active or inactive are those of the source. Cut-off read from the data, not from the text of the source: active = GI50 up to about 1.1 µM and inactive = higher. Where only a bound is given, the exact number is not on record here.

As to `Cc1ccc(S(=O)(=O)OC2C(C3COC(C)(C)O3)OC3OC(C)(C)OC32)cc1` (configuration not stated), the GI50 in assay [1], in assay [2], in assay [3], in [4], in [5] and in assay [6] was > 100 µM (inactive) throughout. Besides, the GI50 in assay [7], in assay [8], in assay [9], in assay [10], in [11] and in assay [12] was > 100 µM (inactive) in each case. The GI50 in [13], in [14], in [15], in assay [16] and in [17] was > 100 µM (inactive) throughout.

Take `c1ccc(Cc2nc(Cc3n[nH]c(Cc4ccccc4)n3)n[nH]2)cc1`: the GI50 in assay [1] is > 100 µM (inactive); in assay [2], > 100 µM (inactive); in [3], > 100 µM (inactive); in [4] it was 11.8 µM (inactive); in assay [5], > 100 µM (inactive); in [6], > 100 µM (inactive). Further, the GI50 in [7], in [10], in assay [11], in [18], in assay [12] and in assay [19] was > 100 µM (inactive) throughout. Moreover, the GI50 in assay [13], in assay [14], in assay [15], in assay [16] and in assay [17] was > 100 µM (inactive) in each case.

Take `O=C(O)c1ccc(Nc2nc3cc(C(F)(F)F)ccc3nc2-c2ccccc2)cc1`: the GI50 in assay [1] was 62.5 µM (inactive); in assay [20] it was 27.7 µM (inactive); in assay [2], 17.2 µM (inactive); in [4] it was 17.6 µM (inactive); in assay [5] it was 13.4 µM (inactive); in assay [7], 32.1 µM (inactive). Besides, the GI50 in assay [8] is 25 µM (inactive); in [9], 19.1 µM (inactive); in [10] it was 15.2 µM (inactive); in assay [11], 45.6 µM (inactive); in assay [18], 16.4 µM (inactive); in [12] it was 13.4 µM (inactive). The GI50 in assay [19] is 21.7 µM (inactive); in assay [14] it was 6.89 µM (inactive); in assay [15], 35.3 µM (inactive); in assay [16], 10.4 µM (inactive); in assay [17], 17.1 µM (inactive).

On to `Cc1nc2c(Cl)cc(Cl)cc2c(Cl)c1CCCl`, for which the GI50 in assay [1] is 51.1 µM (inactive); in assay [20], 55.2 µM (inactive); in assay [2], > 100 µM (inactive); in assay [4], 51.4 µM (inactive); in [5] it was > 100 µM (inactive); in assay [6], > 100 µM (inactive). In addition, the GI50 in assay [7] is 69.5 µM (inactive); in assay [8], > 100 µM (inactive); in assay [9], > 100 µM (inactive); in [10], > 100 µM (inactive); in [11], 78.3 µM (inactive); in [18] it was 57.5 µM (inactive). The GI50 is > 100 µM (inactive) in [12]; > 100 µM (inactive) in [19]; 99.5 µM (inactive) in assay [13]; 79.1 µM (inactive) in assay [14]; > 100 µM (inactive) in [15]; 79.6 µM (inactive) in [16]. Further, the GI50 in [17] was 30.1 µM (inactive).

Regarding `CN(C)CCNC(=O)c1cc([N+](=O)[O-])ccn1`, the GI50 is 84.5 µM (inactive) in assay [1]; 20.3 µM (inactive) in assay [20]; 31.4 µM (inactive) in assay [2]; 46.8 µM (inactive) in [4]; 25.9 µM (inactive) in [5]; 36.7 µM (inactive) in [6]. The GI50 in [7] was 25.4 µM (inactive); in assay [8] it was > 100 µM (inactive); in assay [9] it was 38.1 µM (inactive); in assay [10] it was 22.5 µM (inactive); in [11] it was 71.4 µM (inactive); in assay [18], 45.1 µM (inactive). For the same molecule, the GI50 in assay [12] was 26.8 µM (inactive); in [19] it was 22.8 µM (inactive); in assay [13], 24.2 µM (inactive); in [14], 54.8 µM (inactive); in assay [15] it was 16.3 µM (inactive); in assay [16], 19.2 µM (inactive). In addition, the GI50 in assay [17] was > 100 µM (inactive).

Consider `c1ccc(/N=C(\N2CCOCC2)N(CCN2CCOCC2)c2ccccc2)cc1`, for which the GI50 in assay [1] is > 100 µM (inactive); in [20] it was > 10 µM (inactive); in [2] it was > 100 µM (inactive); in [4] it was > 100 µM (inactive); in [5], > 100 µM (inactive); in [6], > 100 µM (inactive). Moreover, the GI50 in assay [7], in assay [8], in assay [9], in assay [10], in assay [18] and in assay [12] was > 100 µM (inactive) each time. Moreover, the GI50 in [19] is > 100 µM (inactive); in [13], > 100 µM (inactive); in assay [14] it was > 100 µM (inactive); in assay [15] it was > 100 µM (inactive); in assay [16], > 100 µM (inactive); in assay [17] it was 45.2 µM (inactive).

Take `C=C1C2C[C@@H]3O[C@H]4C[C@H]5O[C@@]6(C[C@@H]7O[C@]8(C[C@H](C)[C@@H]9O[C@@H]%10CC(C=O)O[C@@H]%10C[C@@H]9O8)C[C@H](C)[C@@H]7O6)C[C@H]5O[C@H]4[C@H](C)[C@H]3OC(=O)C[C@H]3CC[C@@H]4OC5[C@H]6O[C@]7(CC[C@H]8CC(=C)[C@H](CC[C@@H](C[C@H]1C)O2)O8)CC6O[C@@H]5[C@@H](O7)[C@H]4O3` (some centres not stated): the GI50 is < 0.0001 µM (active) in assay [1]; < 0.0001 µM (active) in [2]; 0.000724 µM (active) in assay [3]; < 0.0001 µM (active) in assay [4]; < 0.0001 µM (active) in [5]; < 0.0001 µM (active) in assay [6]. For the same molecule, the GI50 in [7] is 0.000229 µM (active); in assay [8], < 0.0001 µM (active); in assay [9], < 0.0001 µM (active); in assay [10] it was < 0.0001 µM (active); in assay [18], < 0.0001 µM (active); in assay [12], < 0.0001 µM (active). Also, the GI50 in assay [14] is < 0.0001 µM (active); in [15], < 0.01 µM (active); in assay [16], < 0.0001 µM (active); in assay [17], < 0.0001 µM (active).

As for `Nc1n[n+]([O-])c2cc([N+](=O)[O-])ccc2[n+]1[O-]`, the GI50 in assay [1] was 18.1 µM (inactive); in assay [20], 2.2 µM (inactive); in assay [2], 6.81 µM (inactive); in assay [4], 11 µM (inactive); in assay [5], 2.87 µM (inactive); in assay [6], 4.84 µM (inactive). The GI50 in assay [7] is 4.99 µM (inactive); in [8], 15.5 µM (inactive); in assay [9], 3.31 µM (inactive); in assay [10] it was 1.93 µM (inactive); in assay [11] it was 21.2 µM (inactive); in assay [18] it was 2.11 µM (inactive). Besides, the GI50 is 10.4 µM (inactive) in [12]; 4.74 µM (inactive) in assay [19]; 15 µM (inactive) in [13]; 3.18 µM (inactive) in assay [14]; 13.3 µM (inactive) in assay [15]; 2.49 µM (inactive) in assay [16]. In addition, the GI50 in [17] was 10.5 µM (inactive).
